Data set [1] has as its target T1, Human gelatinase-A (MMP-2) (Homo sapiens, UniProt P08253).
T1 sequence (P08253 110-660): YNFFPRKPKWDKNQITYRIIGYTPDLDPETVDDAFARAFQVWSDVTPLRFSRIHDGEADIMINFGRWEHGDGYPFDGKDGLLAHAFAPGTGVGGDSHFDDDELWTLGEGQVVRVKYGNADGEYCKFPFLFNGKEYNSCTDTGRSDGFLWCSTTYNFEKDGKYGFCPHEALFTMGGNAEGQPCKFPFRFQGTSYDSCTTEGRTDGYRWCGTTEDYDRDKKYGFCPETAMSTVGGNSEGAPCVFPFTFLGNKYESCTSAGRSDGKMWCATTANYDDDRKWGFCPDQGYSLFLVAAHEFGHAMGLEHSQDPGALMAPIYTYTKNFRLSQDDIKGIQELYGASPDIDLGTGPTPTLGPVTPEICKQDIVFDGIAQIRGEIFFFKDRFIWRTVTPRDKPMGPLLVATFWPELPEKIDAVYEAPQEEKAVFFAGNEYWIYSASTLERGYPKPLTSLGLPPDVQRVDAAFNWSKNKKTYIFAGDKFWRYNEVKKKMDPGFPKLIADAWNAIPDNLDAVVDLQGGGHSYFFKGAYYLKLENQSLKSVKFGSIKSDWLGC
The experiment in a line: MMP inhibition, internal fluorescence quenching method (MCA peptide substrate). The data set is classed as biochemical. How it is done:
(§1) The inhibitory activity of the compounds of the present invention was evaluated in vitro against one or more of the MMP enzymes (gelatinases, collagenases, stromelysins) using the internal fluorescence quenching method. The assay method is based on the hydrolysis of the MMP substrate, MCA-Pro-Leu-Gly-Leu-DPA-Ala—Arg-NH2 at 37° C. (see Knight, C. G. et al., FEBS Lett. 296:263-266, 1992). The enzymes cleave at the Gly-Leu bond removing the internally quenching DPA group. The release of the highly fluorescent peptide MCA-Pro-Leu was monitored with a LS50 Perkin Elmer fluorimeter equipped with a Peltier-thermostated cell holder using an excitation wavelength of 326 nm and an emission wavelenght of 398 nm. Slis were set at 14/14. Proper determination of steady-state rates of substrate cleavage required a preincubation at 37° C. of 15 minutes to allow for complete equilibration of the enzyme-inhibitor complex. […] Rates of substrate hydrolysis, expressed as fluorescence arbitrary units per minute, were calculated by least-square analysis of the steady-state linear progression curves. The steady-state rates were fitted to the Michaelis equation describing competitive inhibition; in particular, Ki,app were determined by fining the data to the tight-binding equation of Morrison (Biochem. Biophys. Acta, 185:269-286, 1969) by non-linear methods.
(§2) Human gelatinase-A (MMP-2) was obtained as penzyme (72 kDa) and was activated with 1 mM 4-aminophenylmercuric acetate for 30 min at 37° C. immediately prior to use. The inhibitor was diluted into the assay from a stock solution in 100% DMSO, and controls substituted an equal volume of DMSO so that the final DMSO concentration from inhibitor and substrate dilution in all assays was 1%. The concentration of MMP-2 was 19.2 picoM. For compounds of formula (I) where X is —OH, the assay buffer was 50 mM Tris/HCl pH 6.5 containing 150 mM NaCl, 10 mM CaCl2, 0.01 mM ZnCl2 and 0.05% Brij35 (Protocol A). Other conditions were as stated above.
The compounds of formula (I) where X is —NHOH were tested against MMP-2 and MMP-1 under the conditions stated above, but the assay solution was buffered at pH 7.4 (Protocol B).

In data set [2] the target is T2, Human fibroblast collagenase (MMP-1) (Homo sapiens, UniProt P03956).
T2 sequence (P03956 101-269): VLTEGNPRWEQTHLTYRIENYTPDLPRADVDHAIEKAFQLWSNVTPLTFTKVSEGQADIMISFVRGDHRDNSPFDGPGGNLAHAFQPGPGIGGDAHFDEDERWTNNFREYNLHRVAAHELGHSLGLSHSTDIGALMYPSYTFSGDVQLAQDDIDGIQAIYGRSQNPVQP
Described as above. The data set is classed as biochemical. The protocol:
as §1, §2
Assay conditions were the same as above, but enzyme concentration was 200 picoM.

The mark [3] stands for this setting: Protocol A: Tris/HCl pH 6.5, 37° C., MMP-2 19.2 picoM, substrate 3 μM, carboxylic acids, read-out: MMP-2 Ki.
Setting [4] is: Protocol B: pH 7.4, 37° C., hydroxamic acids (X is —NHOH), read-out: MMP-1 Ki (picoM).
The mark [5] stands for this setting: Protocol B: pH 7.4, 37° C., hydroxamic acids (X is —NHOH), read-out: MMP-2 Ki (picoM).
[6] abbreviates: Protocol A: pH 6.5, 37° C., enzyme 200 picoM, substrate 3 μM, carboxylic acids, read-out: MMP-1 Ki.

Structures can show the parent of a compound that is named as a salt. Where two headings read alike, the source gives them in different places.

Results on 13 compounds are retold here after US6765003B1, “3-Arylsulfonyl-2 (substituted methyl) propanoic acid derivatives as matrix metalloproteinase inhibitors” (Pharmacia Italia, SpA, priority 1999, dated 2004).

The melting point is the temperature, or range, at which the solid turns liquid. A word on the Ki: it is the dissociation constant of the complex between target and ligand, obtained from inhibition or displacement. Turning to `O=C(O)C(CSc1ccccc1)CS(=O)(=O)c1ccc(-c2ccc(Cl)cc2)cc1` (racemic) [Example 1, 3-[(4′-chloro[1,1′-biphenyl]-4-yl)sulfonyl]-2-[(phenylsulfanyl)methyl]propanoic acid], the melting point was in the range of 158 to 162 °C. Further, the Ki in data set [1] (setting [3]) came to 8.3 nM.
In the same order, the values of `CN1C(=O)N(CC(CS(=O)(=O)c2ccc(-c3ccccc3)cc2)C(=O)O)C(=O)C1(C)C` (centres unmarked) [Example 7] are > 200 °C (dec.) and 42 nM.
As to `CN1C(=O)N(CC(CS(=O)(=O)c2ccc(-c3ccc(Cl)cc3)cc2)C(=O)NO)C(=O)C1(C)C` (centres unmarked) [Example 8, 3-[(4′-chloro[1,1′-biphenyl]-4-yl)sulfonyl]-N-hydroxy-2-[(3,4,4-trimethyl-2,5-dioxo-1-imidazolidinyl)methyl]propanamide], the Ki in data set [2] (setting [4]) came to 26.8 nM; in data set [1] (setting [5]) it was 0.107 nM.
Turning to `CC1(C)NC(=O)N(CC(CS(=O)(=O)c2ccc(-c3ccc(Cl)cc3)cc2)C(=O)NO)C1=O` (centres unmarked) [Example 10, 3-[(4′-chloro[1,1′-biphenyl]-4-yl)sulfonyl]-N-hydroxy-2-[(4,4-dimethyl-2,5-dioxo-1-imidazolidinyl)methyl]propanamide], the Ki in data set [2] (setting [4]) came out at 12.6 nM; in data set [1] (setting [5]), 0.05 nM.
`CCCCN1CC(=O)N(CC(CS(=O)(=O)c2ccc(-c3ccc(Cl)cc3)cc2)C(=O)O)C1=O` (centres unmarked) [Example 13]: the Ki in data set [2] (setting [6]) worked out at 5290 nM; in data set [1] (setting [3]), 12 nM.
In the same order, the values of `O=C(Nc1ccc(S(=O)(=O)CC(CSc2ccccc2)C(=O)O)cc1)c1ccccc1` (centres unmarked) [Example 15, 3-[[4-(Benzoylamino)phenyl]sulfonyl]-2-[(phenylsulfanyl)methyl]propanoic acid] are 81100 nM and 7 nM.
In the same order, the values of `O=C(O)C(CSc1ccc(O)cc1)CS(=O)(=O)c1ccc(-c2ccc(Cl)cc2)cc1` (centres unmarked) [Example 16, 3-[(4′-chloro[1,1′-biphenyl]-4-yl)sulfonyl]-2-[[(4-hydroxyphenyl)sulfanyl]methyl]propanoic acid] are 9700 nM and 9 nM.
In the same order, the values of `O=C(O)C(COc1ccccc1)CS(=O)(=O)c1ccc(-c2ccc(Cl)cc2)cc1` (centres unmarked) [Example 17, 3-[(4′-Chloro[1,1′-biphenyl]-4-yl)sulfonyl]-2-(phenoxymethyl)propanoic acid, sodium salt] are 14700 nM and 9.2 nM.
Turning to `O=C(O)C(CSc1ccccn1)CS(=O)(=O)c1ccc(-c2ccc(Cl)cc2)cc1` (centres unmarked) [Example 20, 3-[(4′-chloro[1,1′-biphenyl]-4-yl)sulfonyl]-2-[(2-pyridinylsulfanyl)methyl]propanoic acid], the Ki stood at 6290 nM in data set [2] (setting [6]) and 3.9 nM in data set [1] (setting [3]).
As to `O=C(Nc1ccc(S(=O)(=O)CC(CSc2ccccc2)C(=O)O)cc1)c1ccc(Cl)cc1` (centres unmarked) [Example 21, 3-[[4-[(4-chlorobenzoyl)amino]phenyl]sulfonyl]-2-[(phenylsulfanyl)methyl]-propanoic acid], the inhibitory constant (Ki) turned out to be 50600 nM in data set [2] (setting [6]) and 1.4 nM in data set [1] (setting [3]).
On to `CC(=O)Nc1ccc(OCC(CS(=O)(=O)c2ccc(-c3ccc(Cl)cc3)cc2)C(=O)O)cc1` (centres unmarked) [Example 30, 3-[(4′-chloro[1,1′-biphenyl]-4-yl)sulfonyl]-2-[(4-acetylaminophenoxy)methyl]propanoic acid], for which the results for the Ki in data set [2] (setting [6]) and in data set [1] (setting [3]) were 19600 nM and 46 nM, respectively.
In the case of `O=C(Nc1ccc(S(=O)(=O)CC(COc2ccccc2)C(=O)O)cc1)c1ccc(Cl)cc1` (centres unmarked) [Example 34, 3-[[4-[(4-chlorobenzoyl)amino]phenyl]sulfonyl]-2-(phenoxymethyl)propanoic acid], the Ki in data set [2] (setting [6]) was 54000 nM; in data set [1] (setting [3]), 2.4 nM.
Take `N#Cc1ccc(C(=O)Nc2ccc(S(=O)(=O)CC(COc3ccccc3)C(=O)O)cc2)cc1` (centres unmarked) [Example 35, 3-[[4-[(4-cyanobenzoyl)amino]phenyl]sulfonyl]-2-(phenoxymethyl)propanoic acid]: the Ki was 67500 nM in data set [2] (setting [6]) and 4.8 nM in data set [1] (setting [3]).
